Laboratory results: ChEMBL document CHEMBL4507292 (2021)

Legend:
[1] = molecular target: Serine/threonine-protein kinase NLK (Homo sapiens) (UniProt Q9UBE8); conditions: Compound concentration 1000.0 nM
[2] = molecular target: Cyclin-dependent kinase 2 (Homo sapiens) (UniProt P24941); conditions: Compound concentration 1000.0 nM
[3] = molecular target: Mitogen-activated protein kinase kinase kinase kinase 2 (Homo sapiens) (UniProt Q12851); conditions: Compound concentration 1000.0 nM
[4] = tested on: Tyrosine-protein kinase ABL1 (Homo sapiens), P00519 [F317I]; conditions: Compound concentration 1000.0 nM
[5] = tested on: eIF-2-alpha kinase GCN2 (Homo sapiens), Q9P2K8 [S808G]; conditions: Compound concentration 1000.0 nM
[6] = molecular target: RAF proto-oncogene serine/threonine-protein kinase (Homo sapiens) (UniProt P04049); conditions: Compound concentration 1000.0 nM
[7] = tested on: Phosphatidylinositol 4,5-bisphosphate 3-kinase catalytic subunit alpha isoform (Homo sapiens), P42336 [H1047L]; conditions: Compound concentration 1000.0 nM
[8] = molecular target: Serine/threonine-protein kinase Nek6 (Homo sapiens) (UniProt Q9HC98); conditions: Compound concentration 1000.0 nM
[9] = molecular target: MAP/microtubule affinity-regulating kinase 4 (Homo sapiens) (UniProt Q96L34); conditions: Compound concentration 1000.0 nM
[10] = molecular target: Serine/threonine-protein kinase 16 (Homo sapiens) (UniProt O75716); conditions: Compound concentration 1000.0 nM
[11] = molecular target: Serine/threonine-protein kinase 17B (Homo sapiens) (UniProt O94768); conditions: Compound concentration 1000.0 nM
[12] = molecular target: Protein kinase C delta type (Homo sapiens) (UniProt Q05655); conditions: Compound concentration 1000.0 nM
Chain of Protein kinase C delta type (Homo sapiens) (Q05655 whole entry, looked up): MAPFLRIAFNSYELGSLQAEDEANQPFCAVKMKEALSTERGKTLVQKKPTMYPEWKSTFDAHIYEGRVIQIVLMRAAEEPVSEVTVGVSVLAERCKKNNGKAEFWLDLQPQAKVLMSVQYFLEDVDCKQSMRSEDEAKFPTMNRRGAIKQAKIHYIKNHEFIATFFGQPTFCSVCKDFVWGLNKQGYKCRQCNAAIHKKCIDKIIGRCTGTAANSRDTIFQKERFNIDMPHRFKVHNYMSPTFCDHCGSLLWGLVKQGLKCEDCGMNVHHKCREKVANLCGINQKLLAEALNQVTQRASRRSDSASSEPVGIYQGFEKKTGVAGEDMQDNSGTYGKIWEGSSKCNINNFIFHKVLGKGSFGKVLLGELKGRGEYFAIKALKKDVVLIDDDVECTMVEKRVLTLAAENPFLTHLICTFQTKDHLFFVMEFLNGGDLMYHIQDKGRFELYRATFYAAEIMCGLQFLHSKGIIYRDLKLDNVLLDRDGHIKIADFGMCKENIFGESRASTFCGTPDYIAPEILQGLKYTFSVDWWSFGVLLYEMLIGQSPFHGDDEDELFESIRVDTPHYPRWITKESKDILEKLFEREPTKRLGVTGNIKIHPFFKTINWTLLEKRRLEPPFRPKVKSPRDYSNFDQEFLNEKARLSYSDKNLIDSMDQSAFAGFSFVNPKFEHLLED

[13] = molecular target: Fibroblast growth factor receptor 2 (Homo sapiens) (UniProt P21802); conditions: Compound concentration 1000.0 nM
[14] = molecular target: Glycogen synthase kinase-3 beta (Homo sapiens) (UniProt P49841); conditions: Compound concentration 1000.0 nM
[15] = molecular target: Serine/threonine-protein kinase 4 (Homo sapiens) (UniProt Q13043); conditions: Compound concentration 1000.0 nM
[16] = molecular target: Ephrin type-A receptor 7 (Homo sapiens) (UniProt Q15375); conditions: Compound concentration 1000.0 nM
[17] = tested on: Epidermal growth factor receptor (Homo sapiens), P00533 [L858R]; conditions: Compound concentration 1000.0 nM
[18] = molecular target: Serine/threonine-protein kinase PLK3 (Homo sapiens) (UniProt Q9H4B4); conditions: Compound concentration 1000.0 nM
[19] = molecular target: Mitogen-activated protein kinase kinase kinase kinase 3 (Homo sapiens) (UniProt Q8IVH8); conditions: Compound concentration 1000.0 nM
[20] = molecular target: TRAF2 and NCK-interacting protein kinase (Homo sapiens) (UniProt Q9UKE5); conditions: Compound concentration 1000.0 nM
[21] = molecular target: Cyclin-dependent kinase 11A (Homo sapiens) (UniProt Q9UQ88); conditions: Compound concentration 1000.0 nM
[22] = molecular target: 5-hydroxytryptamine receptor 1B (Homo sapiens) (UniProt P28222); conditions: Compound concentration 10.0 uM
[23] = molecular target: Sodium-dependent serotonin transporter (Homo sapiens, UniProt P31645); conditions: Compound concentration 10.0 uM
[24] = molecular target: Serine/threonine-protein kinase Nek11 (Homo sapiens) (UniProt Q8NG66); conditions: Compound concentration 1000.0 nM
[25] = molecular target: Mitogen-activated protein kinase 13 (Homo sapiens) (UniProt O15264); conditions: Compound concentration 1000.0 nM
[26] = molecular target: Mitogen-activated protein kinase kinase kinase kinase 5 (Homo sapiens) (UniProt Q9Y4K4); conditions: Compound concentration 1000.0 nM
[27] = molecular target: MAP/microtubule affinity-regulating kinase 3 (Homo sapiens) (UniProt P27448); conditions: Compound concentration 1000.0 nM
[28] = molecular target: Homeodomain-interacting protein kinase 3 (Homo sapiens) (UniProt Q9H422); conditions: Compound concentration 1000.0 nM
[29] = molecular target: G protein-coupled receptor kinase 3 (Homo sapiens) (UniProt P35626); conditions: Compound concentration 1000.0 nM
[30] = molecular target: Cyclin-dependent kinase 3 (Homo sapiens) (UniProt Q00526); conditions: Compound concentration 1000.0 nM
[31] = molecular target: Vascular endothelial growth factor receptor 2 (Homo sapiens) (UniProt P35968); conditions: Compound concentration 1000.0 nM
[32] = molecular target: 3-phosphoinositide-dependent protein kinase 1 (Homo sapiens) (UniProt O15530); conditions: Compound concentration 1000.0 nM
[33] = molecular target: Dual specificity mitogen-activated protein kinase kinase 5 (Homo sapiens) (UniProt Q13163); conditions: Compound concentration 1000.0 nM
[34] = tested on: Epidermal growth factor receptor (Homo sapiens), P00533 [T790M]; conditions: Compound concentration 1000.0 nM
[35] = molecular target: Serine/threonine-protein kinase Nek7 (Homo sapiens) (UniProt Q8TDX7); conditions: Compound concentration 1000.0 nM
Chain of Serine/threonine-protein kinase Nek7 (Homo sapiens) (Q8TDX7 whole entry, looked up): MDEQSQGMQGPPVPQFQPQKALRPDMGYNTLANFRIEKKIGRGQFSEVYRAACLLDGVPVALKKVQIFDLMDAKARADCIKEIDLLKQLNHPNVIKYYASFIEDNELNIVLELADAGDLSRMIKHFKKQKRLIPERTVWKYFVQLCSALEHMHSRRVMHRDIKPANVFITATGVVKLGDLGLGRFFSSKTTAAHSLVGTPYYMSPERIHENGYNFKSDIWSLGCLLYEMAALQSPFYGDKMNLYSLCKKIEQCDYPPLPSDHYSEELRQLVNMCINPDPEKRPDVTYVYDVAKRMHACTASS

[36] = molecular target: Interferon-induced, double-stranded RNA-activated protein kinase (Homo sapiens) (UniProt P19525); conditions: Compound concentration 1000.0 nM
Chain of Interferon-induced, double-stranded RNA-activated protein kinase (Homo sapiens) (P19525 whole entry): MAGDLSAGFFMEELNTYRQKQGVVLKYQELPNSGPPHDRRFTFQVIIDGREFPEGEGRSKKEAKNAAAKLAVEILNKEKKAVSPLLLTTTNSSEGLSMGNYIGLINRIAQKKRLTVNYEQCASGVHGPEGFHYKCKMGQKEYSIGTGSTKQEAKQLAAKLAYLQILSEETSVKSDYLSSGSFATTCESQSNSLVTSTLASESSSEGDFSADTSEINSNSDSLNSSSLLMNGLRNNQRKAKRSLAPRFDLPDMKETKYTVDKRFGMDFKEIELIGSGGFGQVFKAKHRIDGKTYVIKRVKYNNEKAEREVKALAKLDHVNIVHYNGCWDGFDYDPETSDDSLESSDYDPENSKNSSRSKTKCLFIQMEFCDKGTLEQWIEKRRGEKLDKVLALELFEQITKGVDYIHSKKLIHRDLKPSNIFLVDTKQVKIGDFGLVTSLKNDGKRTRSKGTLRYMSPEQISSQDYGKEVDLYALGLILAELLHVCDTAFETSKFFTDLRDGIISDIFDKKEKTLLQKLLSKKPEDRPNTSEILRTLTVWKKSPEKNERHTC

[37] = molecular target: Testis-specific serine/threonine-protein kinase 3 (Homo sapiens) (UniProt Q96PN8); conditions: Compound concentration 1000.0 nM
Chain of Testis-specific serine/threonine-protein kinase 3 (Homo sapiens) (Q96PN8 whole entry, canonical isoform): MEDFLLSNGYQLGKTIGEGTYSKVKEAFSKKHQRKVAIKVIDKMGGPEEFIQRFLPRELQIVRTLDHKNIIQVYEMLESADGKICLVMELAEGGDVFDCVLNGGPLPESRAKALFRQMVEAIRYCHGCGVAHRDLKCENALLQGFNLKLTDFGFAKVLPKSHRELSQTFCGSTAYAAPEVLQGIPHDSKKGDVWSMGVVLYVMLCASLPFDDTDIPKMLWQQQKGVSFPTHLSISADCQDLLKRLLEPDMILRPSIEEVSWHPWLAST

[38] = molecular target: Phosphorylase b kinase regulatory subunit alpha, liver isoform (Homo sapiens) (UniProt P46019); conditions: Compound concentration 1000.0 nM
[39] = molecular target: Megakaryocyte-associated tyrosine-protein kinase (Homo sapiens) (UniProt P42679); conditions: Compound concentration 1000.0 nM
[40] = molecular target: Angiopoietin-1 receptor (Homo sapiens) (UniProt Q02763); conditions: Compound concentration 1000.0 nM
Chain of Angiopoietin-1 receptor (Homo sapiens) (Q02763 whole entry): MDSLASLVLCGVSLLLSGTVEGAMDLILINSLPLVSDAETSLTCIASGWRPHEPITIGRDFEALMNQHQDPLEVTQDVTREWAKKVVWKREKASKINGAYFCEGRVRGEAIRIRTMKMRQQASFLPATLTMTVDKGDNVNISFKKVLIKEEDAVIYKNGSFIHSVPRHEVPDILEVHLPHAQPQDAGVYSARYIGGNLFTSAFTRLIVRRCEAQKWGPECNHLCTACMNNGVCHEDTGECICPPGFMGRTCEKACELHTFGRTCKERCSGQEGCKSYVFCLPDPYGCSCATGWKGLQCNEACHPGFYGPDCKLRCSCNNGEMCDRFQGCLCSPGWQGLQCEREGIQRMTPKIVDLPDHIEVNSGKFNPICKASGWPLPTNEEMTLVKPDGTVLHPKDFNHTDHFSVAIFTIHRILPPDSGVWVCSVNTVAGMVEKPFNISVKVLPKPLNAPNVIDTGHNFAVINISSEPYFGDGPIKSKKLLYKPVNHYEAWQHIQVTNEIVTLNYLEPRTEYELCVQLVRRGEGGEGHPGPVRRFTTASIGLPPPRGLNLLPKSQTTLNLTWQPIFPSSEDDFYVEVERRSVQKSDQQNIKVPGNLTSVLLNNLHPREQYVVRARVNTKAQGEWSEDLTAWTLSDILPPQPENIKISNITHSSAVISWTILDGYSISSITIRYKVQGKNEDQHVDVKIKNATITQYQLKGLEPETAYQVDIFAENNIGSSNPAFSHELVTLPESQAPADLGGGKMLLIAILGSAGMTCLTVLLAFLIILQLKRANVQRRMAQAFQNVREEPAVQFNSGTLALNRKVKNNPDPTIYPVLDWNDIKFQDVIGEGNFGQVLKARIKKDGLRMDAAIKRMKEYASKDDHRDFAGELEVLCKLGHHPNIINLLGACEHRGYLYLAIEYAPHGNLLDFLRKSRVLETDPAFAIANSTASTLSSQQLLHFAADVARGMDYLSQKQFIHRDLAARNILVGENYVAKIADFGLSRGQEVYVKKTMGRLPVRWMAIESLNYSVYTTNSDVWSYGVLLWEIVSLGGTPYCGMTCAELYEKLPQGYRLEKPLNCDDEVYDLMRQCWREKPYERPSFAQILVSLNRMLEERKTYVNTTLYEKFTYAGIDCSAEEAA

[41] = molecular target: Phosphatidylinositol 5-phosphate 4-kinase type-2 beta (Homo sapiens) (UniProt P78356); conditions: Compound concentration 1000.0 nM
[42] = molecular target: Serine/threonine-protein kinase MRCK gamma (Homo sapiens) (UniProt Q6DT37); conditions: Compound concentration 1000.0 nM
Chain of Serine/threonine-protein kinase MRCK gamma (Homo sapiens) (Q6DT37 whole entry): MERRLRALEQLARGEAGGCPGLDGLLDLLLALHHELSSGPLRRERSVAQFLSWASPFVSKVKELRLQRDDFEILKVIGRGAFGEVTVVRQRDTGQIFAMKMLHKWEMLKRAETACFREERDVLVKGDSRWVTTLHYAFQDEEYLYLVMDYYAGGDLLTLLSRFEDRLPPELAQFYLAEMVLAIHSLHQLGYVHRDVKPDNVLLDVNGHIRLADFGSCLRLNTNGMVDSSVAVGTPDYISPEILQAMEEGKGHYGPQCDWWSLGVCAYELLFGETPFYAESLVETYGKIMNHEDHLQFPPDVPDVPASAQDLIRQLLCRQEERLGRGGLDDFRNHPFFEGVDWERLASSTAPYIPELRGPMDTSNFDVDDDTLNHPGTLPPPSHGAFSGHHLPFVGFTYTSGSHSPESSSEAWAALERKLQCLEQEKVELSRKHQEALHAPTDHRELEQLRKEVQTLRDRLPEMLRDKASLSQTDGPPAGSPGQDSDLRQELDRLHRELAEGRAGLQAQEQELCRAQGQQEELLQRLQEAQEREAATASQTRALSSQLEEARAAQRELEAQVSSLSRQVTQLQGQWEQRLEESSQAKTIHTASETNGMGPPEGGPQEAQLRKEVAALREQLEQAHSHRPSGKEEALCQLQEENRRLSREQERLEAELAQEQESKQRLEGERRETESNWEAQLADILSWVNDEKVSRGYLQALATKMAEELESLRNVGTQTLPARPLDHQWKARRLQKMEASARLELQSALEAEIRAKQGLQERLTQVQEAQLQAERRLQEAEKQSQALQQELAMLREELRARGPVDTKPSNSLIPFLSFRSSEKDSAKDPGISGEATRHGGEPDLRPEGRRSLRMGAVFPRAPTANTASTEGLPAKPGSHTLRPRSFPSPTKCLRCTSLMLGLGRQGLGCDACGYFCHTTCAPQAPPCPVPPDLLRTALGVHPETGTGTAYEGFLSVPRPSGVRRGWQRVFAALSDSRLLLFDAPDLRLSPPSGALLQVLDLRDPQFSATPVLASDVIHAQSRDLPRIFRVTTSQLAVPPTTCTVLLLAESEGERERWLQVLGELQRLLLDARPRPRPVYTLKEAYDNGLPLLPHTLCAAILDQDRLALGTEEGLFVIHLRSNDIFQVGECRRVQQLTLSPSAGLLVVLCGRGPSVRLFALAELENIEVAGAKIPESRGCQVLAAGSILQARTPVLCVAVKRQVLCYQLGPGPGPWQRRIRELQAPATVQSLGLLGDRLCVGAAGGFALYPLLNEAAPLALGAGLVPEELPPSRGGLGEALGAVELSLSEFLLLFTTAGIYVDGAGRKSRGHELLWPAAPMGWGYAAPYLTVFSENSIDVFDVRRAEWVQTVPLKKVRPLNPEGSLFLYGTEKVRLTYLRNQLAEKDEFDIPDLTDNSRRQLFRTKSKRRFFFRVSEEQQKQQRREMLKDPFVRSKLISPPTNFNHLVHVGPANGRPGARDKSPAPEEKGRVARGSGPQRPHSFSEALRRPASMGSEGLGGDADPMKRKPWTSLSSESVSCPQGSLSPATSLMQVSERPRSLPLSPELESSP

[43] = molecular target: Sigma intracellular receptor 2 (Homo sapiens, UniProt Q5BJF2); conditions: Compound concentration 10.0 uM
[44] = molecular target: Calcium/calmodulin-dependent protein kinase kinase 2 (Homo sapiens) (UniProt Q96RR4); conditions: Compound concentration 1000.0 nM
Chain of Calcium/calmodulin-dependent protein kinase kinase 2 (Homo sapiens) (Q96RR4 2-588 limits assumed): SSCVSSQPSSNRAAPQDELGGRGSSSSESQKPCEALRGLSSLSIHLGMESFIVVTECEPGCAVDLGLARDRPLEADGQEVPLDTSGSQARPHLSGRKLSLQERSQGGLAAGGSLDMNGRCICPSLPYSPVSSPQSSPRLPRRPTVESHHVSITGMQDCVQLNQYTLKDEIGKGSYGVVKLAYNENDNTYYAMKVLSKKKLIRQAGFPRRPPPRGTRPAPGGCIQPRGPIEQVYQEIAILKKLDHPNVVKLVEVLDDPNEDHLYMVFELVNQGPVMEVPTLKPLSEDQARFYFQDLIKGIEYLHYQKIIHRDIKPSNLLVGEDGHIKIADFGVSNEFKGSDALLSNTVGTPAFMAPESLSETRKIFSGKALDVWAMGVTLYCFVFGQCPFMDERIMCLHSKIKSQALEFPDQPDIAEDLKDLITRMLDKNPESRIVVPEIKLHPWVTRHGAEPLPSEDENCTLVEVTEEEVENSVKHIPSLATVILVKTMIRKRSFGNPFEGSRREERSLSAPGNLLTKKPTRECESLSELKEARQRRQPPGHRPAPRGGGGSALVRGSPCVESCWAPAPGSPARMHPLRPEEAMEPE

[45] = molecular target: Macrophage colony-stimulating factor 1 receptor (Homo sapiens) (UniProt P07333); conditions: Compound concentration 1000.0 nM

SMILES: Cc1c(C(=O)O)cc(-c2ccc(C3CCNCC3)cc2)c2ccc(-c3ccc(C(F)(F)F)cc3)cc12 [PPTN-NC]
- residual activity [1]: 100%
- residual activity [2]: 100%
- residual activity [3]: 100%
- residual activity [4]: 100%
- residual activity [5]: 100%
- residual activity [6]: 80%
- residual activity [7]: 100%
- residual activity [8]: 100%
- residual activity [9]: 97%
- residual activity [10]: 100%
- residual activity [11]: 100%
- residual activity [12]: 100%
- residual activity [13]: 100%
- residual activity [14]: 100%
- residual activity [15]: 95%
- residual activity [16]: 100%
- residual activity [17]: 100%
- residual activity [18]: 100%
- residual activity [19]: 100%
- residual activity [20]: 100%
- residual activity [21]: 100%
- inhibition [22]: 14.4%
- inhibition [23]: -7.91%
- residual activity [24]: 100%
- residual activity [25]: 96%
- residual activity [26]: 100%
- residual activity [27]: 100%
- residual activity [28]: 100%
- residual activity [29]: 71%
- residual activity [30]: 100%
- residual activity [31]: 100%
- residual activity [32]: 100%
- residual activity [33]: 100%
- residual activity [34]: 87%
- residual activity [35]: 100%
- residual activity [36]: 100%
- residual activity [37]: 93%
- residual activity [38]: 100%
- residual activity [39]: 100%
- residual activity [40]: 100%
- residual activity [41]: 86%
- residual activity [42]: 100%
- inhibition [43]: 92.7%
- residual activity [44]: 100%
- residual activity [45]: 96%

SMILES: O=C(O)c1cc(-c2ccc(C3CCNCC3)cc2)c2ccc(-c3ccc(C(F)(F)F)cc3)cc2c1 [PPTN]
- residual activity [1]: 100%
- residual activity [2]: 100%
- residual activity [3]: 100%
- residual activity [4]: 100%
- residual activity [5]: 100%
- residual activity [6]: 70%
- residual activity [7]: 100%
- residual activity [8]: 100%
- residual activity [9]: 100%
- residual activity [10]: 100%
- residual activity [11]: 100%
- residual activity [12]: 100%
- residual activity [13]: 100%
- residual activity [14]: 100%
- residual activity [15]: 98%
- residual activity [16]: 100%
- residual activity [17]: 100%
- residual activity [18]: 100%
- residual activity [19]: 100%
- residual activity [20]: 100%
- residual activity [21]: 100%
- inhibition [22]: 20.4%
- inhibition [23]: -2.04%
- residual activity [24]: 100%
- residual activity [25]: 97%
- residual activity [26]: 100%
- residual activity [27]: 100%
- residual activity [28]: 100%
- residual activity [29]: 68%
- residual activity [30]: 100%
- residual activity [31]: 100%
- residual activity [32]: 100%
- residual activity [33]: 96%
- residual activity [34]: 96%
- residual activity [35]: 100%
- residual activity [36]: 100%
- residual activity [37]: 100%
- residual activity [38]: 100%
- residual activity [39]: 100%
- residual activity [40]: 100%
- residual activity [41]: 91%
- residual activity [42]: 100%
- inhibition [43]: 95.6%
- residual activity [44]: 100%
- residual activity [45]: 85%
